Results reported in patent publication US20180305408A1, “COMPOUNDS FOR INDUCING TISSUE FORMATION AND USES THEREOF” (HISTIDE AG, priority 2015, published 2018).
No end group written: not given here.

Test system: Human epithelial cells
Assay: Wound healing scratch test, collective cell migration
Type: cell-based
Conditions: after 18 hours of culture
Procedure: Human epithelial cells were cultured with or without GFR-binding compounds as defined herein (SEQ ID NO: 28). A usual scratch test was applied (Nat Protoc 2: 329-333) on a monolayer of these epithelial cells in culture (FIG. 12a). An increase in the cell migration velocity for cells cultured with peptides was observed after 18 hours of culture. The cells migrated collectively and the communication between cells was maintained (FIG. 12b). In fact, the injury has been closed rapidly for the cells cultured with GFR-binding compounds as defined herein.

## SEQ ID NO: 28: GFR-binding compound tested for wound healing; sequence not in this part (RPTQVQLRPVQVRKIEYVRKKPKLKKATV; also: cyclic, ring type not given here)
  cell migration velocity: increase
